These are literature values, as cited in US6630442B1, “Reparatives for chemosurgery and laser (thermal) therapy” (priority 1997, dated 2003).

For data set [1], the system named is acute damage to the skin by sunburn induced by ultraviolet irradiation.
The subject of data set [2] is lipid peroxidation in tissues. The following applies: tissues of vitamin E deficient chicks.
The subject of data set [3] is skin damage by ultraviolet irradiation.
Data set [4] concerns partial thickness burns or split thickness epidermal burns. The following applies: mixed with topical creams, applied twice daily.
Another data set concerns granulating wounds. The following applies: applied to granulating wounds.
The test system of another data set is cells. Conditions: in vitro.

On to `C[Se]CC[C@H](N)C(=O)O` [selenomethionine], for which the “protection against acute UV damage to the skin, measured by the minimal erythema dose” value in data set [1] (eight women, topical lotion 0.002%, 0.02% and 0.05%, solar ultraviolet simulator) is listed as “effective in protecting against acute UV damage to the skin”. The “plasma levels of selenium” value in data set [1] (volunteers after topical selenomethionine) is on record as “remained unchanged”. In the data set with psoriasis (human, in vivo), the “number of CD4+ T-cells in the reticular dermis of psoriatic lesions” value was “statistically significant increase”. Moreover, the “skin levels of selenium dependent glutathione peroxidase” value in the data set on psoriasis (normal and psoriatic skin) was “unchanged”. Also, the “increase in blood selenium post treatment” value in the data set on psoriasis (psoriasis patients with normal pretreatment selenium blood levels) was 40%. For the same compound, the “in vivo lipid peroxidation” value in data set [2] was “inhibits in vivo lipid peroxidation”. Further, in data set [3] (mice treated with selenomethionine), the “skin damage by ultraviolet irradiation (inflammation and pigmentation)” value is “significantly less skin damage by ultraviolet irradiation”. In addition, the “onset and incidence of skin cancers” value in data set [3] (mice treated with selenomethionine, UV irradiation) is “later onset and lesser incidence of skin cancers”. In addition, the selenium toxicity result in data set [3] (mouse, in vivo, po) is listed as “no evidence of selenium toxicity”. In data set [3] (topical lotion versus comparable oral doses), the “concentration of selenium in skin in areas of topical application” value is “greater than those of the experimental animals given comparable oral doses”.
In the case of “EGF: Epidermal growth factor is a 53 amino acid polypeptide which stimulates messenger RNA, DNA and protein synthesis (NSDSECPLSHDGYCLHDGVCMYIEALDKYACNCVVGYIGERCQYRDLKWWELR; Epidermal growth factor; UniProt P01133 971-1023, looked up)”, in data set [4], the “healing process of wounds” value was “highly significant increase in the healing process”. The “concentrations of wound DNA and collagen hydroxyproline” value with granulating wounds is “increase both the concentrations of DNA associated with cutaneous injury and of collagen hydroxyproline”. Further, in the data set on cells, the “exposure time needed to yield a mitogenic signal” value is “about five hours”.
In the case of (−)epigallo catechin gallate [EGCG], the hydrogen peroxide formation result in the data set with human leukocytes is “inhibits hydrogen peroxide formation”.
